Results taken from publication PMC9696832, “Pyrazole-Based Thrombin Inhibitors with a Serine-Trapping Mechanism of Action: Synthesis and Biological Activity” (Pharmaceuticals, 2022).
Read-outs that look alike come from different tables or passages of the source.

Key:
human α-thrombin = target: T1, human α-thrombin (Homo sapiens, UniProt P00734); experiment: Serine protease inhibition assay, fluorogenic substrate: thrombin; format: biochemical
T1 construct: human α-thrombin (active) protein; purchased antibodies-online ABIN2127880
Protocol: Serine protease inhibition assays. The inhibitory activity of synthesized compounds towards thrombin, FXIIa, FXa, FXIa, plasmin, plasma kallikrein, chymotrypsin, and trypsin was measured by quantifying the hydrolysis rate of the fluorogenic substrate as reported previously [14, 17]. Briefly, the activity was tested in buffer (10 mM Tris-Cl, 150 mM NaCl, 10 mM MgCl2·6H2O, 1 mM CaCl2·2H2O, 0.1% w/v BSA, 0.01% v/v Triton-X100, pH = 7.4) utilizing clear flat-bottom, black polystyrene 96 well-plates. […] The fluorogenic substrate solution was added into the wells followed by the addition of 2 µL of test-compounds solution, and the reaction was triggered by addition of the enzyme solution (final testing volume–152 µL). In case of blank (substrate + buffer) and control (substrate + enzyme) wells, 2 µL of DMSO was added instead of the test-compounds’ solution. […] To derive IC50 values, endpoint RFU (single fluorescence reading) was used. Sigmoidal curves were prepared in GraphPad Prism software and IC50 values were derived from the fitted curves [14, 17].

human β-FXIIa = target: T2, human β-FXIIa (Homo sapiens, UniProt P00748); experiment: Serine protease inhibition assay, fluorogenic substrate: FXIIa; format: biochemical; conditions: for IC50: read-out: Serine Protease IC50 ± SD, FXIIa
T2 construct: human β-FXIIa, HFXIIAB; purchased Molecular Innovations HFXIIAB
T2 sequence (P00748 373-615 limits assumed, other chains not shown): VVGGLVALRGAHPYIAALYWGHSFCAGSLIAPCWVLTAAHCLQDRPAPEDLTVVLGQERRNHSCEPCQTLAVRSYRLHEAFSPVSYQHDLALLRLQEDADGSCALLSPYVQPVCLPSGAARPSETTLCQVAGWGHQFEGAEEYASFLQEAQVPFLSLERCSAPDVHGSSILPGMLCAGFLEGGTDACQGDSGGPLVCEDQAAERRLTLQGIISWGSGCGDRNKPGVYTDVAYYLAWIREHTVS
Protocol: Serine protease inhibition assays. The inhibitory activity of synthesized compounds towards thrombin, FXIIa, FXa, FXIa, plasmin, plasma kallikrein, chymotrypsin, and trypsin was measured by quantifying the hydrolysis rate of the fluorogenic substrate as reported previously. Briefly, the activity was tested in buffer (10 mM Tris-Cl, 150 mM NaCl, 10 mM MgCl2·6H2O, 1 mM CaCl2·2H2O, 0.1% w/v BSA, 0.01% v/v Triton-X100, pH = 7.4) utilizing clear flat-bottom, black polystyrene 96 well-plates. […] Dilutions of test-compounds ranging from 2 nM to 32 µM (final concentrations) in DMSO were prepared. The fluorogenic substrate solution was added into the wells followed by the addition of 2 µL of test-compounds solution, and the reaction was triggered by addition of the enzyme solution (final testing volume–152 µL). In case of blank (substrate + buffer) and control (substrate + enzyme) wells, 2 µL of DMSO was added instead of the test-compounds’ solution. Fluorescence intensity was measured with Microplate Reader Mithras LB 940 (Berthold Technologies, excitation at 355 nm, emission at 460 nm) for a period of 1 h (thrombin, FXIIa, FXa, FXIa, and trypsin), 30 min (plasma kallikrein, chymotrypsin), or 15 min (plasmin) with a read every minute. The reactions were performed at 25 °C. To derive IC50 values, endpoint RFU (single fluorescence reading) was used. Sigmoidal curves were prepared in GraphPad Prism software and IC50 values were derived from the fitted curves.

[1] = read-out: Serine Protease IC50 ± SD, Thrombin
[2] = [S]0 = 25 µM Boc-Val-Pro-Arg-AMC, Km = 18 ± 1 µM, triplicate, 25 °C, read-out: Serine Protease IC50 ± SD, Thrombin

| SMILES | IC50 (human α-thrombin; [1]) | IC50 (human β-FXIIa) | melting point | other results |
| --- | --- | --- | --- | --- |
| COc1ccc(CNc2cc(-c3cccnc3)nn2C(=O)C(C)(C)C)cc1 [24b, 1-{5-[(4-methoxybenzyl)amino]-3-(pyridin-3-yl)-1H-pyrazol-1-yl}-2,2-dimethylpropan-1-one] |  | > 5 µM | 130 °C | IC50 (human α-thrombin; [2]): 1.282 ± 0.009 µM; IC50 (human α-thrombin; read-out: thrombin IC50): ~1.3 µM |
| O=c1c2ccccc2[nH]c2nc(-c3ccncc3)nn12 [compound 22, 2-(pyridin-4-yl)-[1,2,4]triazolo[5,1-b]quinazolin-9(4H)-one] | > 5 µM |  |  |  |
| O=c1c2ccccc2n(Cc2ccccc2)c2cc(C3CCCCC3)nn12 [10h, 4-benzyl-2-cyclohexylpyrazolo[5,1-b]quinazolin-9(4H)-one] | > 5 µM | > 5 µM | 180 to 181 °C |  |
| CC(C)(C)C(=O)n1nc(C2CCCCC2)cc1NCc1ccccc1 [24h, 1-[5-(benzylamino)-3-cyclohexyl-1H-pyrazol-1-yl]-2,2-dimethylpropan-1-one] |  | > 5 µM | 47 °C | thrombin inhibitory properties (in words) (human α-thrombin): inactive; IC50 (human α-thrombin; [2]): > 5 µM; FXIIa inhibitory properties (in words) (human β-FXIIa): inactive |
| O=c1c2ccccc2n(Cc2ccc(Cl)s2)c2nc(-c3cnccn3)nn12 [compound 19, 4-[(5-chlorothiophen-2-yl)methyl]-2-(pyrazin-2-yl)-[1,2,4]triazolo[5,1-b]quinazolin-9(4H)-one] | > 5 µM | > 5 µM |  |  |
| O=c1c2ccccc2n(Cc2ccc(Cl)s2)c2cc(-c3cccnc3)nn12 [10e, 4-[(5-chlorothiophen-2-yl)methyl]-2-(pyridin-3-yl)pyrazolo[5,1-b]quinazolin-9(4H)-one] | > 5 µM | > 5 µM | 248 to 249 °C |  |
| O=C(c1ccccc1I)n1nc(C2CCCCC2)cc1NCc1ccc(Cl)s1 [9i, (5-{[(5-chlorothiophen-2-yl)methyl]amino}-3-cyclohexyl-1H-pyrazol-1-yl)(2-iodophenyl)methanone] |  | > 5 µM |  | thrombin inhibitory properties (in words) (human α-thrombin): no activity; IC50 (human α-thrombin; [2]): > 5 µM |
| O=c1c2ccccc2n(CC2CCCCC2)c2cc(-c3cccnc3)nn12 [10f, 4-(cyclohexylmethyl)-2-(pyridin-3-yl)pyrazolo[5,1-b]quinazolin-9(4H)-one] | > 5 µM | > 5 µM |  |  |
| COc1ccc(Cn2c3ccccc3c(=O)n3nc(-c4cccnc4)cc23)cc1 [10b, 4-(4-methoxybenzyl)-2-(pyridin-3-yl)pyrazolo[5,1-b]quinazolin-9(4H)-one] | > 5 µM | > 5 µM | 245 °C |  |
| O=c1c2ccccc2n(Cc2ccc(Cl)s2)c2cc(C3CCCCC3)nn12 [10i, 4-[(5-chlorothiophen-2-yl)methyl]-2-cyclohexylpyrazolo[5,1-b]quinazolin-9(4H)-one] | > 5 µM | > 5 µM | 210 °C |  |
| O=c1c2ccccc2[nH]c2nc(-c3cccnc3)nn12 [compound 20, 2-(pyridin-3-yl)-[1,2,4]triazolo[5,1-b]quinazolin-9(4H)-one] | > 5 µM | > 5 µM |  |  |
| CC(C)(C)C(=O)n1nc(C2CCCCC2)cc1NCc1ccc(Cl)s1 [24i, 1-(5-{[(5-chlorothiophen-2-yl)methyl]amino}-3-cyclohexyl-1H-pyrazol-1-yl)-2,2-dimethylpropan-1-one] |  | > 5 µM | 92 to 93 °C | IC50 (human α-thrombin; [2]): > 5 µM |
| O=c1[nH]c2nc(-c3ccncc3)nn2c2ccccc12 [compound 23, 2-(pyridin-4-yl)-[1,2,4]triazolo[1,5-a]quinazolin-5(4H)-one] | > 5 µM | > 5 µM |  |  |
| O=c1[nH]c2nc(-c3cccnc3)nn2c2ccccc12 [compound 21, 2-(pyridin-3-yl)-[1,2,4]triazolo[1,5-a]quinazolin-5(4H)-one] | > 5 µM | > 5 µM |  |  |
| CC(C)(C)C(=O)n1nc(-c2cccnc2)cc1NCc1ccco1 [24d, 1-(5-{[(furan-2-yl)methyl]amino}-3-(pyridin-3-yl)-1H-pyrazol-1-yl)-2,2-dimethylpropan-1-one] |  | > 5 µM |  | IC50 (human α-thrombin; [2]): 1.31 ± 0.032 µM; IC50 (human α-thrombin; read-out: thrombin IC50): ~1.3 µM |
| [H]/N=C(/N)c1ccc(NCc2nc3cc(C(=O)N(CCC(=O)O)c4ccccn4)ccc3n2C)cc1 [Dabigatran, reference compound] |  | > 5 µM |  |  |

Further lines, with some results ahead:

| IC50 (human α-thrombin; [1]) | IC50 (human β-FXIIa) | melting point | SMILES | other results |
| --- | --- | --- | --- | --- |
| > 5 µM | > 5 µM | 136 to 137 °C | COc1ccc(CNc2cc(-c3cccnc3)nn2C(=O)c2ccccc2I)cc1 [9b, (2-iodophenyl){5-[(4-methoxybenzyl)amino]-3-(pyridin-3-yl)-1H-pyrazol-1-yl}methanone] |  |
| > 5 µM | > 5 µM | 252 °C | O=c1c2ccccc2n(Cc2cccc3ccccc23)c2cc(-c3cccnc3)nn12 [10c, 4-[(naphthalen-1-yl)methyl]-2-(pyridin-3-yl)pyrazolo[5,1-b]quinazolin-9(4H)-one] |  |
| > 5 µM | > 5 µM |  | O=c1[nH]c2cc(-c3cccnc3)nn2c2ccccc12 [compound 15, 2-(pyridin-3-yl)pyrazolo[1,5-a]quinazolin-5(4H)-one] |  |
| > 5 µM | > 5 µM | 266 °C | O=c1c2ccccc2n(Cc2ccccc2)c2cc(-c3cccnc3)nn12 [10a, 4-benzyl-2-(pyridin-3-yl)pyrazolo[5,1b]quinazolin-9(4H)-one] |  |
| > 5 µM | > 5 µM |  | O=C(c1ccccc1I)n1nc(-c2cccnc2)cc1NCC1CCCCC1 [9f, {5-[(cyclohexylmethyl)amino]-3-(pyridin-3-yl)-1H-pyrazol-1-yl}(2-iodophenyl)methanone] |  |
| > 5 µM | > 5 µM | 137 °C | O=C(c1ccccc1I)n1nc(-c2cccnc2)cc1NCc1cccc2ccccc12 [9c, (2-iodophenyl)(5-{[(naphthalen-1-yl)methyl]amino}-3-(pyridin-3-yl)-1H-pyrazol-1-yl)methanone] |  |
| 0.165 ± 0.005 µM | > 5 µM |  | O=C(c1ccccc1I)n1nc(-c2cccnc2)cc1NCc1ccc(Cl)s1 [9e, (5-{[(5-chlorothiophen-2-yl)methyl]amino}-3-(pyridin-3-yl)-1H-pyrazol-1-yl)(2-iodophenyl)methanone] | fold more potent thrombin inhibitor than 3-phenyl-substituted counterpart 9g (human α-thrombin; IC50 165 nM vs. 1.3 μM): about 8 fold |
| > 5 µM | > 5 µM | 103 to 104 °C | O=C(c1ccccc1I)n1nc(-c2cccnc2)cc1NCc1ccco1 [9d, {5-[(furan-2-ylmethyl)amino]-3-(pyridin-3-yl)-1H-pyrazol-1-yl}(2-iodophenyl)methanone] |  |
| > 5 µM | > 5 µM |  | O=C(Nc1cc(-c2cccnc2)n[nH]1)c1ccccc1I [compound 14, 2-iodo-N-[3-(pyridin-3-yl)-1H-pyrazol-5-yl]benzamide] |  |
| > 5 µM | > 5 µM |  | Nc1cc(-c2cccnc2)nn1C(=O)c1ccccc1 [29a, [5-amino-3-(pyridin-3-yl)-1H-pyrazol-1-yl](phenyl)methanone] |  |
| > 5 µM | > 5 µM |  | Nc1cc(-c2ccccc2)nn1C(=O)c1ccccc1 [29b, (5-amino-3-phenyl-1H-pyrazol-1-yl)(phenyl)methanone] |  |
| > 5 µM | > 5 µM |  | O=C(c1ccccc1I)n1nc(C2CCCCC2)cc1NCc1ccccc1 [9h, [5-(benzylamino)-3-cyclohexyl-1H-pyrazol-1-yl](2-iodophenyl)methanone] |  |
| > 5 µM | > 5 µM |  | O=c1c2ccccc2n(Cc2ccc(Cl)s2)c2cc(-c3ccccc3)nn12 [10g, 4-[(5-chlorothiophen-2-yl)methyl]-2-phenylpyrazolo[5,1-b]quinazolin-9(4H)-one] |  |
|  | > 5 µM | 137 to 138 °C | O=C(c1ccccc1I)n1nc(-c2ccccc2)cc1NCc1ccc(Cl)s1 [9g, (5-{[(5-chlorothiophen-2-yl)methyl]amino}-3-phenyl-1H-pyrazol-1-yl)(2-iodophenyl)methanone] | IC50 (human α-thrombin; [2]): 1.31 ± 0.032 µM; IC50 (human α-thrombin; read-out: thrombin IC50): 1.3 µM |
|  |  | 270 °C (dec.) | O=C(Nc1cc(-c2cccnc2)n[nH]1)c1ccccc1 [26a, N-[3-(pyridin-3-yl)-1H-pyrazol-5-yl]benzamide] |  |
|  | > 5 µM | 130 to 131 °C | CC(C)(C)C(=O)n1nc(-c2cccnc2)cc1NCc1cccc2ccccc12 [24c, 2,2-dimethyl-1-(5-{[(naphthalen-1-yl)methyl]amino}-3-(pyridin-3-yl)-1H-pyrazol-1-yl)propan-1-one] | IC50 (human α-thrombin; [2]): > 5 µM |
|  | > 5 µM |  | CC(C)(C)C(=O)n1nc(-c2ccccc2)cc1NCc1ccc(Cl)s1 [24g, 1-(5-{[(5-chlorothiophen-2-yl)methyl]amino}-3-phenyl-1H-pyrazol-1-yl)-2,2-dimethylpropan-1-one] | IC50 (human α-thrombin; [2]): 0.419 ± 0.099 µM |
